Among the data in patent US7544707B2, “Bicyclic derivatives as PPAR modulators” (Eli Lilly and Company, priority 2003, dated 2009) are melting point values, retold here.

In general, melting point refers to the temperature, or range, at which the solid turns liquid.

In the case of `Cc1cc(SC(C)c2cccc3cn(-c4ccc(C(F)(F)F)cc4)nc23)ccc1OCC(=O)O` (racemic) [Example 8, (+/−)-2-Methyl-4-{1-[2-(4-trifluoromethylphenyl)-2H-indazol-7-yl]ethylsulfanyl}phenoxyacetic Acid], the melting point lay in the range of 62 to 64 °C. Turning to `Cc1cc(SC(C)c2cccc3cn(-c4ccc(C(F)(F)F)cc4)nc23)ccc1CCC(=O)O` (racemic) [Example 9, (+/−)-3-(2-Methyl-4-{1-[2-(4-trifluoromethylphenyl)-2H-indazol-7-yl]ethylsulfanyl}phenyl)propionic Acid], the melting point lay within 59 to 61 °C. Under `CCc1cc(SC(C)c2cccc3cn(-c4ccc(C(F)(F)F)cc4)nc23)ccc1OCC(=O)O` (racemic) [Example 10, (+/−)-2-Ethyl-4-{1-[2-(4-trifluoromethylphenyl)-2H-indazol-7-yl]ethylsulfanyl}phenoxyacetic Acid] stands 65 to 67 °C; under `CC(Sc1ccc2c(CC(=O)O)csc2c1)c1cccc2cn(-c3ccc(C(F)(F)F)cc3)nc12` (racemic) [Example 11, (+/−)-6-{1-[2-(4-Trifluoromethylphenyl)-2H-indazol-7-yl]ethylsulfanyl}benzo[b]thiophen-3-ylacetic Acid], 76 to 78 °C; under `Cc1cc(OC(C)c2cccc3cn(-c4ccc(C(F)(F)F)cc4)nc23)ccc1CCC(=O)O` (racemic) [Example 12, (+/−)-3-(2-Methyl-4{1-[2-(4-trifluoromethylphenyl)-2H-indazol-7yl]ethoxy}phenyl)propionic Acid], 66 to 68 °C.

`CCc1cc(OC(C)c2cccc3cn(-c4ccc(C(F)(F)F)cc4)nc23)ccc1CCC(=O)O` (racemic) [Example 13]: the melting point is 61 to 63 °C.

In the case of `Cc1cc(OC(C)c2cccc3cn(-c4ccc(C(F)(F)F)cc4)nc23)ccc1OC(C)(C)C(=O)O` (racemic) [Example 40, (+/−)-2-Methyl-2-(2-methyl-4-{1-[2-(4-trifluoromethylphenyl)-2H-indazol-7-yl]ethoxy}phenoxy)propionic Acid], the melting point was in the range of 139 to 141 °C. As for `Cc1cc(SC(C)c2cccc3cn(-c4ccc(C(F)(F)F)cc4)nc23)ccc1OC(C)(C)C(=O)O` (racemic) [Example 41, (+/−)-2-Methyl-2-(2-methyl-4-{1-[2-(4-trifluoromethylphenyl)-2H-indazol-7-yl]ethylsulfanyl}phenoxy)propionic Acid], the melting point lay in the range of 140 to 142 °C.

In turn, `CC(Sc1ccc(OC(C)(C)C(=O)O)cc1)c1cccc2cn(-c3ccc(C(F)(F)F)cc3)nc12` (racemic) [Example 42, (+/−)-2-Methyl-2-(4-{1-[2-(4-trifluoromethylphenyl)-2H-indazol-7-yl]ethylsulfanyl}phenoxy)propionic Acid] showed a melting point of 150 to 152 °C. Then `CC(Oc1ccc(SC(C)(C)C(=O)O)cc1)c1cccc2cn(-c3ccc(C(F)(F)F)cc3)nc12` (racemic) [Example 43, (+/−)-2-Methyl-2-(4-{1-[2-(4-trifluoromethylphenyl)-2H-indazol-7-yl]ethoxy}phenylsulfanyl)propionic Acid], with 158 to 160 °C; and `CC(Oc1ccc(OC(C)(C)C(=O)O)cc1)c1cccc2cn(-c3ccc(C(F)(F)F)cc3)nc12` (racemic) [Example 44, (+/−)-2-Methyl-2-(4-{1-[2-(4-trifluoromethylphenyl)-2H-indazol-7-yl]ethoxy}phenoxy)propionic Acid], with 130 to 132 °C. Under `Cc1cc(OC(C)c2ccc3cn(-c4ccc(C(F)(F)F)cc4)nc3c2)ccc1OC(C)(C)C(=O)O` (racemic) [Example 57, (+/−)-2-Methyl-2-(2-methyl-4-{1-[2-(4-trifluoromethylphenyl)-2H-indazol-6-yl]ethoxy}phenoxy)propionic Acid] stands 156 to 158 °C; under `CC(Oc1ccc(OC(C)(C)C(=O)O)cc1)c1ccc2cn(-c3ccc(C(F)(F)F)cc3)nc2c1` (racemic) [Example 58, (+/−)-2-Methyl-2-(4-{1-[2-(4-trifluoromethylphenyl)-2H-indazol-6-yl]ethoxy}phenoxy)propionic Acid], 144 to 146 °C; under `CC(Sc1ccc(OC(C)(C)C(=O)O)cc1)c1ccc2cn(-c3ccc(C(F)(F)F)cc3)nc2c1` (racemic) [Example 59, (+/−)-2-Methyl-2-(4-{1-[2-(4-trifluoromethylphenyl)-2H-indazol-6-yl]ethylsulfanyl}phenoxy)propionic Acid], 130 to 132 °C. For `Cc1cc(SC(C)c2ccc3cn(-c4ccc(C(F)(F)F)cc4)nc3c2)ccc1OC(C)(C)C(=O)O` (racemic) [Example 60, (+/−)-2-Methyl-2-(2-methyl-4-{1-[2-(4-trifluoromethylphenyl)-2H-indazol-6-yl]ethylsulfanyl}phenoxy)propionic Acid], the melting point lay within 114 to 116 °C.

Regarding `Cc1cc(OC(C)c2ccc3nn(-c4ccc(C(F)(F)F)cc4)cc3c2)ccc1OC(C)(C)C(=O)O` (racemic) [Example 66, (+/−)-2-Methyl-2-(2-methyl-4-{1-[2-(4-trifluoromethylphenyl)-2H-indazol-5-yl]ethoxy}phenoxy)propionic Acid], the melting point fell in the range of 129 to 131 °C. Under `CC(Oc1ccc(SC(C)(C)C(=O)O)cc1)c1ccc2nn(-c3ccc(C(F)(F)F)cc3)cc2c1` (racemic) [Example 67, (+/−)-2-Methyl-2-(4-{1-[2-(4-trifluoromethylphenyl)-2H-indazol-5-yl]ethoxy}phenylsulfanyl)propionic Acid] stands 153 to 155 °C; under `CC(Sc1ccc(OC(C)(C)C(=O)O)cc1)c1ccc2nn(-c3ccc(C(F)(F)F)cc3)cc2c1` (racemic) [Example 68, (+/−)-2-Methyl-2-(4-{1-[2-(4-trifluoromethylphenyl)-2H-indazol-5-yl]ethylsulfanyl}phenoxy)propionic Acid], 109 to 111 °C. For `Cc1cc(SC(C)c2ccc3nn(-c4ccc(C(F)(F)F)cc4)cc3c2)ccc1OC(C)(C)C(=O)O` (racemic) [Example 69, (+/−)-2-Methyl-2-(2-methyl-4-{1-[2-(4-trifluoromethylphenyl)-2H-indazol-5-yl]ethylsulfanyl}phenoxy)propionic Acid], the melting point is 70 to 72 °C. Then `CC(Oc1ccc(OC(C)(C)C(=O)O)cc1)c1ccc2nn(-c3ccc(C(F)(F)F)cc3)cc2c1` (racemic) [Example 70, (+/−)-2-Methyl-2-(4-{1-[2-(4-trifluoromethylphenyl)-2H-indazol-5-yl]ethoxy}phenoxy)propionic Acid], with 152 to 154 °C; and `Cc1cc(SC(C)c2cccc3nn(-c4ccc(C(F)(F)F)cc4)cc23)ccc1OC(C)(C)C(=O)O` (racemic) [Example 72, (+/−)-2-Methyl-2-(2-methyl-4-{1-[2-(4-trifluoromethylphenyl)-2H-indazol-4-yl]ethylsulfanyl}phenoxy)propionic Acid], with 153 to 155 °C. The compound `CC(Sc1ccc(OC(C)(C)C(=O)O)cc1)c1cccc2nn(-c3ccc(C(F)(F)F)cc3)cc12` (racemic) [Example 73, (+/−)-2-Methyl-2-(4-{1-[2-(4-trifluoromethylphenyl)-2H-indazol-4-yl]ethylsulfanyl}phenoxy)propionic Acid] displayed a melting point of 148 to 150 °C. Then `Cc1cc(OC(C)c2cccc3nn(-c4ccc(C(F)(F)F)cc4)cc23)ccc1OC(C)(C)C(=O)O` (racemic) [Example 74, (+/−)-2-Methyl-2-(2-methyl-4-{1-[2-(4-trifluoromethylphenyl)-2H-indazol-4-yl]ethoxy}phenoxy)propionic Acid], with 130 to 132 °C. Under `CC(Oc1ccc(OC(C)(C)C(=O)O)cc1)c1cccc2nn(-c3ccc(C(F)(F)F)cc3)cc12` (racemic) [Example 75, (+/−)-2-Methyl-2-(4-{1-[2-(4-trifluoromethylphenyl)-2H-indazol-4-yl]ethoxy}phenoxy)propionic Acid] stands 86 to 88 °C; under `CC(Oc1ccc(SC(C)(C)C(=O)O)cc1)c1cccc2nn(-c3ccc(C(F)(F)F)cc3)cc12` (racemic) [Example 76, (+/−)-2-Methyl-2-(4-{1-[2-(4-trifluoromethyl-phenyl)-2H-indazol-4-yl]ethoxy}phenylsulfanyl)propionic Acid], 138 to 140 °C. Under `Cc1cc(OC(C)c2cccc3c2cnn3-c2ccc(C(F)(F)F)cc2)ccc1OC(C)(C)C(=O)O` (racemic) [Example 82, (+/−)-2-Methyl-2-(2-methyl-4-{1-[1-(4-trifluoromethylphenyl)-1H-indazol-4-yl]ethoxy}phenoxy)propionic Acid] stands 82 to 85 °C; under `Cc1cc(SC(C)c2cccc3c2cnn3-c2ccc(C(F)(F)F)cc2)ccc1OC(C)(C)C(=O)O` (racemic) [Example 83, (+/−)-2-Methyl-2-(2-methyl-4-{1-[1-(4-trifluoromethylphenyl)-1H-indazol-4-yl]ethylsulfanyl}phenoxy)propionic Acid], 85 to 87 °C; under `CC(Oc1ccc(OC(C)(C)C(=O)O)cc1)c1cccc2c1cnn2-c1ccc(C(F)(F)F)cc1` (racemic) [Example 85, (+/−)-2-Methyl-2-(4-{1-[1-(4-trifluoromethylphenyl)-1H-indazol-4-yl]ethoxy}phenoxy)propionic Acid], 99 to 102 °C.

As to `CC(Sc1ccc(OC(C)(C)C(=O)O)cc1)c1cccc2c1cnn2-c1ccc(C(F)(F)F)cc1` (racemic) [Example 86, (+/−)-2-Methyl-2-(4-{1-[1-(4-trifluoromethylphenyl)-1H-indazol-4-yl]ethylsulfanyl}phenoxy)propionic Acid], the melting point lay within 85 to 90 °C. Under `Cc1cc(OC(CCC(F)(F)F)c2cccc3c2cnn3-c2ccc(C(F)(F)F)cc2)ccc1OC(C)(C)C(=O)O` (racemic) [Example 87, (+/−)-2-Methyl-2-(2-methyl-4-{4,4,4-trifluoro-1-[1-(4-trifluoromethylphenyl)-1H-indazol-4-yl]butoxy}phenoxy)propionic Acid] stands 218 to 222 °C.
